From patent US9259406B2, “Antitumor combinations containing antibodies recognizing specifically CD38 and melphalan” (SANOFI, priority 2008, dated 2016)
Where “and” joins values, the source holds several entries; their conditions need not be identical. Equal values may be shown once. Entries after “also recorded” stand apart in the source; their conditions may differ. Read-outs that look alike come from different tables or passages of the source.

Columns and labels:
[1] = tested on: human multiple myeloma RPMI-8226
[2] = tested on: human multiple myeloma LP1
murine CD38 = target: T1, murine CD38 (Mus musculus, UniProt P56528); test: cross-reactivity of the antibody with murine CD38; type: binding
T1 sequence (P56528 1-304): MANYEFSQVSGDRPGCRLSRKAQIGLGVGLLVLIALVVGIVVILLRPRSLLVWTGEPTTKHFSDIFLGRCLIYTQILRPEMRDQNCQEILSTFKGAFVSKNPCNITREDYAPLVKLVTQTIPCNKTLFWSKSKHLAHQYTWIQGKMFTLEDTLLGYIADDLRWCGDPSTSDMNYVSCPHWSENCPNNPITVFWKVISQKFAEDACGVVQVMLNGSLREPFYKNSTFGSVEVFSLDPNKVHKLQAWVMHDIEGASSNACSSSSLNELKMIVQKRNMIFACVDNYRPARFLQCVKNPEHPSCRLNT

[3] = melphalan IV 3.8 mg/kg/inj (total 15.2), days 16, 19, 22, 25
[4] = melphalan IV 6.2 mg/kg/inj (total 24.8), days 16, 19, 22, 25
[5] = melphalan IV 10.0 mg/kg/inj (total 40.0), days 16, 19, 22, 25
[6] = melphalan alone IV, total injected dose 40 mg/kg
[7] = melphalan IV 3.8 mg/kg/inj (total 15.2), days 12, 15, 18, 21
[8] = melphalan IV 6.2 mg/kg/inj (total 24.8), days 12, 15, 18, 21
[9] = melphalan IV 10.0 mg/kg/inj (total 40.0), days 12, 15, 18, 21
[10] = melphalan IV 16.1 mg/kg/inj (total 48.3), treatments stopped on day 18
[11] = hu38SB19 IV 40.0 mg/kg/inj (total 160.0), days 12, 15, 18, 21

N[C@@H](Cc1ccc(N(CCCl)CCCl)cc1)C(=O)O [melphalan]
Comments [1, 3]: Moderately active
Drug death [1, 3]: 0/5
T-C in days (1000 mg) [1, 3]: 8.5 days
log10 cell kill [1, 3]: 0.8
% BWC at nadir (day) ([1]; melphalan IV 3.8 mg/kg/inj (total 15.2), days 16, 19, 22, 25, nadir day 17): −1.2%
Comments [1, 4]: Active
Drug death [1, 4]: 0/5
T-C in days (1000 mg) [1, 4]: 9.5 days
log10 cell kill [1, 4]: 0.9
% BWC at nadir (day) ([1]; melphalan IV 6.2 mg/kg/inj (total 24.8), days 16, 19, 22, 25, nadir day 32): −3.5%
Drug death [1, 5]: 0/5
T-C in days (1000 mg) [1, 5]: 20.0 days
log10 cell kill [1, 5]: 1.9
Comments ([1]; melphalan IV 10.0 mg/kg/inj (total 40.0), days 16, 19, 22, 25, 10 mg/kg): HNTD, active
% BWC at nadir (day) ([1]; melphalan IV 10.0 mg/kg/inj (total 40.0), days 16, 19, 22, 25, nadir day 26): −12.2%
Comments ([1]; melphalan IV 16.1 mg/kg/inj (total 32.2), days 16, 19): Toxic
Drug death ([1]; melphalan IV 16.1 mg/kg/inj (total 32.2), days 16, 19, 16.1 mg/kg): 3 and 3/5
% BWC at nadir (day) ([1]; melphalan IV 16.1 mg/kg/inj (total 32.2), days 16, 19, nadir day 26): −33.4%
highest nontoxic dose (HNTD) [1, 6]: 10 mg/kg/inj
Comments [2, 7]: Moderately active
T-C in days (1000 mg) [2, 7]: 4.1 days
log10 cell kill gross [2, 7]: 0.8
% BWC at nadir (day) ([2]; melphalan IV 3.8 mg/kg/inj (total 15.2), days 12, 15, 18, 21, nadir day 22): +7.0%
Comments [2, 8]: Highly active
T-C in days (1000 mg) [2, 8]: 17.4 days
log10 cell kill gross [2, 8]: 3.5
% BWC at nadir (day) ([2]; melphalan IV 6.2 mg/kg/inj (total 24.8), days 12, 15, 18, 21, nadir day 24): −3.0%
T-C in days (1000 mg) [2, 9]: 46.5 days
log10 cell kill gross [2, 9]: 9.3
% BWC at nadir (day) ([2]; melphalan IV 10.0 mg/kg/inj (total 40.0), days 12, 15, 18, 21, nadir day 24): −14.6%
Comments [2, 10]: Toxic
drug-related deaths [2, 10]: 4/5
% BWC at nadir (day) ([2]; melphalan IV 16.1 mg/kg/inj (total 48.3), treatments stopped on day 18, nadir day 22): −33.6%
body weight loss at nadir ([2]; melphalan alone 16.1 mg/kg/injection, nadir on day 22): 33.6%
HNTD [2, 6]: 10 mg/kg/inj

hu38SB19: humanized version of anti-CD38 monoclonal antibody 38SB19; heavy chain CDRs SEQ ID NOS: 13, 81, 15, light chain CDRs SEQ ID NOS: 16, 17, 18
tolerability ([1]; mouse, in vivo, 40 mg/kg): well tolerated
% BWC at nadir (day) ([1]; mouse, in vivo, iv, 40 mg/kg): +5.3%
Comments ([1]; mouse, in vivo, iv, 40 mg/kg): not active; also recorded: HDT-inactive
Drug death ([1]; mouse, in vivo, iv, 40 mg/kg): 0/5
T-C in days (1000 mg) ([1]; mouse, in vivo, iv, 40 mg/kg): 5.2 days
log10 cell kill ([1]; mouse, in vivo, iv, 40 mg/kg): 0.5
T-C in days (1000 mg) [2, 11]: 1.1 days
log10 cell kill gross [2, 11]: 0.2
Comments ([2]; hu38SB19 IV 40.0 mg/kg/inj (total 160.0), days 12, 15, 18, 21, 40 mg/kg): not active; also recorded: HDT-inactive
tolerability ([2]; mouse, in vivo, 40 mg/kg): well tolerated
% BWC at nadir (day) ([2]; mouse, in vivo, iv, 40 mg/kg): +15.9%
cross-reactivity with murine CD38 (murine CD38): lack of cross-reactivity
